Laboratory results taken from paper PMC11984392, “EphA2-targeted alpha-particle theranostics for enhancing PDAC treatment” (Theranostics, 2025).
Where two headings read alike, the source gives them in different places. *1 amine or outer side, *2 acyl side, *3 side chain or, on linkers, in order; H or OH if unused. Where a SMILES comes first, the peptide text is derived from it. Bridges are numbered along the chain shown (N, C = ends). [ ]: non-standard residue; d: D form. The star is where a group is joined. TATA = O=C(CC[*:1])N1CN(C(=O)CC[*:2])CN(C(=O)CC[*:3])C1; NOTA = O=C(O)CN1CCN(CC(=O)O)CCN(CC(=O)*)CC1; Hyp = O=C(O)[C@@H]1C[C@@H](O)CN1; hArg = N=C(N)NCCCC[C@H](N)C(=O)O; PEG2 = NCCOCCOCCC(=O)O; Sar = CNCC(=O)O

Test: Ex vivo biodistribution
Design: species or system NSG mice
Settings: both sexes, NSG, mouse, in vivo, total radioactivity, mean ± SEM (n = 4 or 5); for tissue uptake at 2 h / tissue to tissue ratio at 2 h: 120 min p.i.; for tissue to tissue ratio at 2 h: dimensionless; for tissue uptake at 5 min: 5 min p.i.; for tissue uptake at 0.5 h: 30 min p.i.; for tissue uptake at 1.5 h: 90 min p.i.
Protocol: Animal studies were performed under Johns Hopkins University Animal Care and Use Committee (ACUC)-approved protocol (Principal investigator: Sridhar Nimmagadda, Ph.D. and Protocol number M021M175). Male and Female NSG mice (5-6 weeks old) were purchased from JHU immunocompromised core and used to establish xenografts by administering cells subcutaneously (top right flank, unless otherwise noted) to form various tumor models within 3-4 weeks. Following cell numbers were used: Panc1, AsPC1, BxPC3 (1 M), Hs766T and SU8686 (2 M), CFPAC and Panc1005 (5 M). Imaging or biodistribution studies (n = 3-5) were conducted on mice with tumor volumes of 100-200 mm^3. The Panc1 orthotopic tumor model was established by surgically implanting a 3-5 mm^3 section of Panc1 tumor xenograft directly onto the pancreas. The implanted tumors were allowed to grow and were ready for imaging after 10 days of implantation.
Mice with 100-200 mm^3 tumor volume were used for ex vivo biodistribution studies. For radiotracer pharmacokinetics and dosimetry studies, mice with Panc1 tumor xenograft received ~80 µCi (2.96 MBq) [^68Ga]AJ201 and were sacrificed at pre-determined time points (5, 30, 60, 90 and 120 min). All other mice were injected with ~50 µCi (1.85 MBq; 0.2 to 0.5 nmol) Ga-68 labeled radiotracer and were sacrificed at 60 min. The selected tissues were collected, weighed, counted, and their %ID/g values calculated for biodistribution analysis. For pharmacokinetics and dosimetry studies, selected tissues included blood, muscle, tumor, thymus, heart, lung, liver, pancreas, stomach, small intestine, large intestine, spleen, adrenals, kidney, bladder, femur, brain and tumor xenografts. For other studies, selected tissues were blood, muscle, tumor, heart, lung, liver, pancreas, small intestine, spleen, kidney.

[1] = iv, i.v., read-out: Adrenals uptake
[2] = iv, i.v., read-out: Bladder uptake
[3] = iv, i.v., read-out: Femur uptake
[4] = iv, i.v., read-out: Kidney uptake
[5] = iv, i.v., read-out: Large Intestine uptake
[6] = iv, i.v., read-out: Small intestine uptake
[7] = iv, i.v., read-out: Spleen uptake

CC(C)C[C@@H]1NC(=O)[C@@H]2CSCCC(=O)N3CN(CN(C3)C(=O)CCSC[C@H](NC(=O)[C@H](CC(=O)O)NC(=O)[C@H](CCCCNC(=N)N)NC(=O)[C@H](C)NC(=O)CNC(=O)CN(C)C(=O)CN(C)C(=O)CN(C)C(=O)[C@H](CCCNC(=N)N)NC(=O)CNC(=O)CCOCCOCCNC(=O)CN3CCN(CC(=O)O)CCN(CC(=O)O)CC3)C(=O)N3C[C@H](O)C[C@H]3C(=O)N[C@@H](CC(C)C)C(=O)N[C@@H](C(C)C)C(=O)N[C@@H](CC(N)=O)C(=O)N3CCC[C@H]3C(=O)N[C@@H](CC(C)C)C(=O)N2)C(=O)CCSC[C@@H](C(N)=O)NC(=O)[C@H](CCCCNC(=N)N)NC(=O)[C@H](Cc2c[nH]c3ccccc23)NC(=O)[C@@H](CC(=O)O)NC(=O)[C@@H]2CCCN2C(=O)[C@H](Cc2c[nH]cn2)NC1=O [[^68Ga]AJ201, metal not drawn] ({NOTA-PEG2}-GR[Sar][Sar][Sar]GA[hArg]DC[Hyp]LVNPLCLHP[dD]W[hArg]C-NH2; linker 10-17-24 via TATA) gave a tissue uptake at 2 h (iv, 80 uCi, i.v., read-out: Pancreas uptake) of 0.36 ± 0.07 %ID/g, a tissue uptake at 2 h (iv, 80 uCi, i.v., read-out: Thymus uptake) of 1.21 ± 0.52 %ID/g and a tissue uptake at 2 h (iv, 80 uCi, i.v., read-out: Tumor uptake) of 6.46 ± 0.39 %ID/g. For the same molecule, the tissue to tissue ratio at 2 h (iv, 80 uCi, read-out: Tumor/Muscle ratio) was 24.9 ± 1.93, the tissue to tissue ratio at 2 h (iv, 80 uCi, read-out: Tumor/Pancreas ratio) was 18.7 ± 2.39 and the tissue to tissue ratio at 2 h (iv, 80 uCi, read-out: Tumor/blood ratio) was 8.36 ± 1.85. It also gave a tissue uptake at 5 min [1] of 4.91 ± 1.83 %ID/g, a tissue uptake at 5 min [2] of 28.1 ± 12.1 %ID/g and a tissue uptake at 5 min [3] of 2.77 ± 0.13 %ID/g. It also gave a tissue uptake at 5 min [4] of 37.5 ± 5.93 %ID/g, a tissue uptake at 5 min [5] of 3.67 ± 0.66 %ID/g and a tissue uptake at 5 min [6] of 3.25 ± 0.3 %ID/g. It also gave a tissue uptake at 5 min [7] of 7.95 ± 1.66 %ID/g, a tissue uptake at 0.5 h [1] of 2.44 ± 0.46 %ID/g and a tissue uptake at 0.5 h [2] of 53.8 ± 30.8 %ID/g. It also gave a tissue uptake at 0.5 h [3] of 1.36 ± 0.37 %ID/g, a tissue uptake at 0.5 h [4] of 56.9 ± 1.26 %ID/g and a tissue uptake at 0.5 h [5] of 1.95 ± 0.98 %ID/g. The tissue uptake at 0.5 h [6] was 1.16 ± 0.18 %ID/g, the tissue uptake at 0.5 h [7] was 3.87 ± 1.1 %ID/g and the tissue uptake at 1 h (iv, 60 min p.i., i.v., read-out: Bladder uptake) was 48.6 ± 15.5 %ID/g. It also gave a tissue uptake at 1 h (iv, 60 min p.i., i.v., read-out: Femur uptake) of 0.28 ± 0.06 %ID/g, a tissue uptake at 1 h (iv, 60 min p.i., i.v., read-out: Kidney uptake) of 45.5 ± 2.9 %ID/g and a tissue uptake at 1 h (iv, 60 min p.i., i.v., read-out: Large Intestine uptake) of 0.15 ± 0.01 %ID/g. The tissue uptake at 1 h (iv, 60 min p.i., i.v., read-out: Small intestine uptake) was 0.49 ± 0.07 %ID/g, the tissue uptake at 1 h (iv, 60 min p.i., i.v., read-out: Spleen uptake) was 0.74 ± 0.17 %ID/g and the tissue uptake at 1.5 h [1] was 1.85 ± 0.46 %ID/g. It also gave a tissue uptake at 1.5 h [2] of 18.3 ± 6.35 %ID/g, a tissue uptake at 1.5 h [4] of 61.8 ± 11.5 %ID/g and a tissue uptake at 1.5 h [5] of 1.46 ± 0.35 %ID/g. It also gave a tissue uptake at 1.5 h [6] of 0.6 ± 0.15 %ID/g, a tissue uptake at 1.5 h [7] of 1.81 ± 0.78 %ID/g and a tissue uptake at 2 h [1] of 2.69 ± 0.27 %ID/g. For the same molecule, the tissue uptake at 2 h [2] was 19 ± 8.08 %ID/g, the tissue uptake at 2 h [4] was 52 ± 7.46 %ID/g and the tissue uptake at 2 h [5] was 1.02 ± 0.3 %ID/g. For the same molecule, the tissue uptake at 2 h [6] was 0.45 ± 0.24 %ID/g, the tissue uptake at 2 h [7] was 1.55 ± 0.47 %ID/g and the tissue uptake at 2 h (iv, i.v., read-out: Stomach with contents uptake) was 0.3 ± 0.01 %ID/g. For the same molecule, the tissue uptake at 1 h (60 min p.i. with blocking (non-radioactive AJ201 pre-administered), read-out: Adrenals uptake) was 2.36 ± 1.09 %ID/g, the tissue uptake at 1 h (60 min p.i. with blocking (non-radioactive AJ201 pre-administered), read-out: Bladder uptake) was 14.4 ± 13.2 %ID/g and the tissue uptake at 1 h (60 min p.i. with blocking (non-radioactive AJ201 pre-administered), read-out: Blood uptake) was 0.65 ± 0.11 %ID/g. The tissue uptake at 1 h (60 min p.i. with blocking (non-radioactive AJ201 pre-administered), read-out: Brain uptake) was 0.04 ± 0.001 %ID/g, the tissue uptake at 1 h (60 min p.i. with blocking (non-radioactive AJ201 pre-administered), read-out: Femur uptake) was 0.38 ± 0.05 %ID/g and the tissue uptake at 1 h (60 min p.i. with blocking (non-radioactive AJ201 pre-administered), read-out: Heart uptake) was 0.31 ± 0.05 %ID/g. For the same molecule, the tissue uptake at 1 h (60 min p.i. with blocking (non-radioactive AJ201 pre-administered), read-out: Kidney uptake) was 71.3 ± 14.2 %ID/g, the tissue uptake at 1 h (60 min p.i. with blocking (non-radioactive AJ201 pre-administered), read-out: Large Intestine uptake) was 0.93 ± 0.4 %ID/g and the tissue uptake at 1 h (60 min p.i. with blocking (non-radioactive AJ201 pre-administered), read-out: Liver uptake) was 0.48 ± 0.07 %ID/g. For the same molecule, the tissue uptake at 1 h (60 min p.i. with blocking (non-radioactive AJ201 pre-administered), read-out: Lung uptake) was 0.8 ± 0.14 %ID/g, the tissue uptake at 1 h (60 min p.i. with blocking (non-radioactive AJ201 pre-administered), read-out: Muscle uptake) was 0.26 ± 0.03 %ID/g and the tissue uptake at 1 h (60 min p.i. with blocking (non-radioactive AJ201 pre-administered), read-out: Pancreas uptake) was 0.3 ± 0.03 %ID/g. It also gave a tissue uptake at 1 h (60 min p.i. with blocking (non-radioactive AJ201 pre-administered), read-out: Small intestine uptake) of 0.51 ± 0.08 %ID/g, a tissue uptake at 1 h (60 min p.i. with blocking (non-radioactive AJ201 pre-administered), read-out: Spleen uptake) of 0.7 ± 0.11 %ID/g and a tissue uptake at 1 h (60 min p.i. with blocking (non-radioactive AJ201 pre-administered), read-out: Stomach with contents uptake) of 0.19 ± 0.06 %ID/g. For the same molecule, the tissue uptake at 1 h (60 min p.i. with blocking (non-radioactive AJ201 pre-administered), read-out: Thymus uptake) was 2.28 ± 0.53 %ID/g, the tissue uptake at 1 h (60 min p.i. with blocking (non-radioactive AJ201 pre-administered), read-out: Tumor uptake) was 1.08 ± 0.24 %ID/g and the tissue to tissue ratio at 1 h (60 min p.i. with blocking (non-radioactive AJ201 pre-administered), read-out: Tumor/Muscle ratio) was 4.4 ± 1.19. It also gave a tissue to tissue ratio at 1 h (60 min p.i. with blocking (non-radioactive AJ201 pre-administered), read-out: Tumor/Pancreas ratio) of 3.5 ± 0.7 and a tissue to tissue ratio at 1 h (60 min p.i. with blocking (non-radioactive AJ201 pre-administered), read-out: Tumor/blood ratio) of 1.66 ± 0.37.
